Experimental data: patent US10294202B2, “Pyrrolidinones as herbicides” (FMC Corporation, priority 2013, dated 2019)

Legend:
field violet = assay: Test D pre-/postemergence herbicide test; format: in vivo, Viola arvensis; conditions: for Plant response rating, Field Violet: scale 0 to 100 (0 no effect, 100 complete control); for Plant response rating: Field Violet, scale 0 to 100
Description: Seeds of plant species selected from bluegrass (annual bluegrass, Poa annua), blackgrass (Alopecurus myosuroides), canarygrass (littleseed canarygrass, Phalaris minor), chickweed (common chickweed, Stellaria media), galium (catchweed bedstraw, Galium aparine), bromegrass, downy (downy bromegrass, Bromus tectorum), field poppy (Papaver rhoeas), field violet (Viola arvensis), foxtail, green (green foxtail, Setaria viridis), deadnettle (henbit deadnettle, Lamium amplexicaule), ryegrass, Italian (Italian ryegrass, Lolium multiflorum), kochia (Kochia scoparia), lambsquarters (Chenopodium album), oilseed rape (Brassica napus), pigweed (Amaranthus retroflexus), chamomile (scentless chamomile, Matricaria inodora), Russian thistle (Salsola kali), speedwell (bird's-eye speedwell, Veronica persica), barley, spring (spring barley, Hordeum vulgare), wheat, spring (spring wheat, Triticum aestivum), buckwheat, wild (wild buckwheat, Polygonum convolvulus), mustard, wild (wild mustard, Sinapis arvensis), oat, wild (wild oat, Avena fatua), radish, wild (wild radish, Raphanus raphanistrum), […]), barley, winter (winter barley, Hordeum vulgare), and wheat, winter (winter wheat, Triticum aestivum) were planted into a silt loam soil and treated preemergence with test chemicals formulated in a non-phytotoxic solvent mixture which included a surfactant. At the same time, these species were planted in pots containing Redi-Earth® planting medium (Scotts Company, 14111 Scottslawn Road, Marysville, Ohio 43041) comprising spaghnum peat moss, vermiculite, wetting agent and starter nutrients and treated with postemergence applications of the test chemicals formulated in the same manner. Plants ranged in height from 2 to 18 cm (1- to 4-leaf stage). Treated plants and controls were maintained in a controlled growth environment for 7 to 21 days after which time all species were compared to controls and visually evaluated. Plant response ratings, summarized in Table D, are based on a scale of 0 to 100 where 0 is no effect and 100 is complete control. A dash (-) response means no test result.

pigweed, palmer = assay: Test E preemergence herbicide test; format: in vivo, Amaranthus palmeri; parameters: key: 0 = no effect, 100 = complete control
Description: (§1) Seeds of plant species selected from corn (Zea mays), soybean (Glycine max), velvetleaf (Abutilon theophrasti), lambsquarters (Chenopodium album), wild poinsettia (Euphorbia heterophylla), pigweed, palmer (palmer pigweed, Amaranthus palmeri), waterhemp (common waterhemp, Amaranthus rudis), surinam grass (Brachiaria decumbens), crabgrass, large (large crabgrass, Digitaria sanguinalis), crabgrass, Brazil (Brazilian crabgrass, Digitaria horizontalis), panicum, fall (fall panicum, Panicum dichotomiflorum), foxtail, giant (giant foxtail, Setaria faberii), foxtail, green (green foxtail, Setaria viridis), goosegrass (Eleusine indica), johnsongrass (Sorghum halepense), ragweed (common ragweed, Ambrosia elatior), barnyardgrass (Echinochloa crus-galli), sandbur (southern sandbur, Cenchrus echinatus), arrowleaf […] rhombifolia), ryegrass, Italian (Italian ryegrass, Lolium multiflorum), dayflower, VA (Virginia dayflower, Commelina virginica), field bindweed (Convolvulus arvensis), morningglory (Ipomoea coccinea), nightshade (eastern black nightshade, Solanum ptycanthum), kochia (Kochia scoparia), nutsedge, yellow (yellow nutsedge, Cyperus esculentus), cocklebur (common cocklebur, Xanthium strumarium), smartweed (ladysthumb smartweed, Polygonum Persicaria) and beggarticks (hairy beggarticks, Bidens pilosa), were planted into a silt loam soil and treated preemergence with test chemicals formulated in a non-phytotoxic solvent mixture which included a surfactant. Treated plants and controls were maintained in a greenhouse for 21 days, after which time all species were compared to controls and visually evaluated. Plant response ratings, summarized in Table E, are based on a scale of 0 to 100 where 0 is no effect and 100 is complete control. A dash (-) response means no test result.

dayflower, VA = assay: Test E preemergence herbicide test; format: in vivo, Commelina virginica; parameters: key: 0 = no effect, 100 = complete control
Description: as §1

crabgrass, large = assay: Test E preemergence herbicide test; format: in vivo, Digitaria sanguinalis; parameters: key: 0 = no effect, 100 = complete control
Description: as §1

waterhemp = assay: Test E preemergence herbicide test; format: in vivo, Amaranthus rudis; parameters: key: 0 = no effect, 100 = complete control
Description: as §1

| Structure (SMILES) | Plant response rating, Field Violet (field violet; Preemergence, 62 g ai/ha) | Plant response rating, Field Violet (field violet; Preemergence, 31 g ai/ha) | Plant response rating (field violet; Preemergence, 125 g ai/ha) | Plant response rating (field violet; Preemergence, 250 g ai/ha) | Plant response rating, Pigweed, Palmer (pigweed, palmer; 31 g ai/ha) | Plant response rating, Pigweed, Palmer (pigweed, palmer; 125 g ai/ha) | Plant response rating, Pigweed, Palmer (pigweed, palmer; 250 g ai/ha) | Plant response rating, Dayflower, VA (dayflower, VA; 31 g ai/ha) | Plant response rating, Dayflower, VA (dayflower, VA; 62 g ai/ha) | Plant response rating, Dayflower, VA (dayflower, VA; 125 g ai/ha) | Plant response rating, Dayflower, VA (dayflower, VA; 250 g ai/ha) | Plant response rating, Crabgrass, Large (crabgrass, large; 31 g ai/ha) | Plant response rating, Crabgrass, Large (crabgrass, large; 62 g ai/ha) | Plant response rating, Crabgrass, Large (crabgrass, large; 125 g ai/ha) | Plant response rating, Crabgrass, Large (crabgrass, large; 250 g ai/ha) | Plant response rating, Waterhemp (waterhemp; 31 g ai/ha) | Plant response rating, Waterhemp (waterhemp; 125 g ai/ha) | Plant response rating, Waterhemp (waterhemp; 250 g ai/ha) | Plant response rating (field violet; Postemergence, 31 g ai/ha) | Plant response rating (field violet; Postemergence, 62 g ai/ha) | other results |
| --- | --- | --- | --- | --- | --- | --- | --- | --- | --- | --- | --- | --- | --- | --- | --- | --- | --- | --- | --- | --- | --- |
| O=C1NCC(c2ccc(F)c(C(F)(F)F)c2)C1C(=O)Nc1cccc(F)c1F (racemic) [Compound 77] | 20 | 15 | 20 | 55 |  |  |  |  |  |  |  |  |  |  |  |  |  |  |  |  |  |
| O=C1NCC(c2ccc(OC(F)F)cc2)C1C(=O)Nc1cccc(F)c1F (racemic) [Compound 350] |  |  |  |  | 0 | 35 | 35 | 0 | 0 | 0 | 40 | 50 | 70 | 98 | 98 | 0 | 0 | 35 |  |  | Plant response rating, Pigweed, Palmer (pigweed, palmer; 62 g ai/ha): 0; Plant response rating, Waterhemp (waterhemp; 62 g ai/ha): 0 |
| O=C1NC[C@H](c2cccc(C(F)(F)F)c2)[C@H]1C(=O)Nc1cccc(F)c1F [Compound 206] | 35 | 15 |  | 25 | 0 | 0 | 0 | 0 | 0 | 0 | 20 | 98 | 98 | 98 | 100 | 50 | 50 | 50 |  |  | Plant response rating, Pigweed, Palmer (pigweed, palmer; 62 g ai/ha): 0; Plant response rating, Field Violet (field violet; Preemergence, 125 g ai/ha): 35 |
| O=C1NCC(c2ccc(C(F)(F)F)cc2)C1C(=O)Nc1ccccc1F (stereo not shown) [Compound 231] | 0 | 0 |  | 0 |  |  |  |  |  |  |  |  |  |  |  |  |  |  | 20 | 20 | Plant response rating (field violet; Postemergence, 125 g ai/ha): 10; Plant response rating (field violet; Postemergence, 250 g ai/ha): 25; Plant response rating, Field Violet (field violet; Preemergence, 125 g ai/ha): 10 |
| O=C1NC[C@H](c2cccc(C(F)(F)F)c2)[C@H]1C(=O)Nc1ccccc1F [Compound 204, (3R,4S)—N-(2-fluorophenyl)-2-oxo-4-[3-(trifluoromethyl)phenyl]-3-pyrrolidinecarboxamide] | 15 | 10 |  | 25 | 0 | 0 | 0 | 0 | 0 | 20 | 30 | 95 | 98 | 98 | 98 | 0 | 0 | 0 |  |  | Plant response rating, Pigweed, Palmer (pigweed, palmer; 62 g ai/ha): 0; Plant response rating, Field Violet (field violet; Preemergence, 125 g ai/ha): 25; Plant response rating, Waterhemp (waterhemp; 62 g ai/ha): 0 |
| O=C1NCC(c2ccc(C(F)(F)F)cc2)C1C(=O)Nc1cccc(F)c1F (stereo not shown) [Compound 80, N-(2,3-difluorophenyl)-2-oxo-4-[4-(trifluoromethyl)phenyl]-3-pyrrolidinecarboxamide] | 20 | 0 | 20 | 25 | 0 | 65 | 90 | 0 | 0 | 0 | 0 | 90 | 95 | 95 | 95 | 20 | 50 | 60 | 15 | 20 | Plant response rating, Pigweed, Palmer (pigweed, palmer; 16 g ai/ha): 0; Plant response rating, Dayflower, VA (dayflower, VA; 16 g ai/ha): 0; Plant response rating, Crabgrass, Large (crabgrass, large; 16 g ai/ha): 50; Plant response rating (field violet; Postemergence, 125 g ai/ha): 15; Plant response rating (field violet; Postemergence, 250 g ai/ha): 25; Plant response rating, Waterhemp (waterhemp; 16 g ai/ha): 0; Plant response rating, Waterhemp (waterhemp; 62 g ai/ha): 30 |
| O=C1NCC(c2ccc(F)c(F)c2)C1C(=O)Nc1ccccc1C(F)(F)F (racemic) [Compound 6] | 0 | 0 | 0 | 0 |  |  |  |  |  |  |  |  |  |  |  |  |  |  | 0 | 20 | Plant response rating (field violet; Postemergence, 16 g ai/ha): 0; Plant response rating (field violet; Postemergence, 125 g ai/ha): 20; Plant response rating (field violet; Postemergence, 250 g ai/ha): 25; Plant response rating, Field Violet (field violet; Preemergence, 16 g ai/ha): 0 |
| O=C1NCC(c2cc(F)c(F)cc2F)C1C(=O)Nc1cccc(F)c1F (stereo not shown) [Compound 50] | 0 | 0 | 0 |  |  |  |  |  |  |  |  |  |  |  |  |  |  |  | 0 | 0 | Plant response rating (field violet; Postemergence, 16 g ai/ha): 0; Plant response rating (field violet; Postemergence, 125 g ai/ha): 0; Plant response rating, Field Violet (field violet; Preemergence, 16 g ai/ha): 0 |
| O=C1NCC(c2ccc(C(F)(F)F)cc2)C1C(=O)Nc1cccc(F)c1F (racemic) [Compound 202] | 0 | 0 | 10 | 15 | 0 | 85 | 80 | 0 | 0 | 0 | 40 | 98 | 98 | 98 | 98 | 50 | 95 | 95 | 40 | 30 | Plant response rating, Pigweed, Palmer (pigweed, palmer; 62 g ai/ha): 70; Plant response rating (field violet; Postemergence, 125 g ai/ha): 30; Plant response rating (field violet; Postemergence, 250 g ai/ha): 30; Plant response rating, Waterhemp (waterhemp; 62 g ai/ha): 60 |
